# Experimental data: patent US20060116335A1, “Ready-for-complexation composition” (Lytone Enterprise, Inc., priority 2004, published 2006)
# Legend:
# [1] = system: Aspergillus niger (CRCC 30506); experiment: Antimycotic activity (MIC) on MRS agar plates inoculated with Aspergillus niger spores; assay type: cell-based; conditions: 168 h, 7 days at 24° C.
# Method: The freshly prepared spore suspension (c.a. 10^6/ml)of Aspergillus niger (CRCC 30506) was inoculated on MRS agar plates containing different concentrations of natamycin. The diameter of the colonies of Aspergillus niger was measured after being incubated for 7days at 24° C. […] The results of Table 2 also indicate that the RFC mixture show higher antimycotic activity than conventional natamycin because of the improved solubility.
# [2] = Natamycin solubility of the RFC composition in water by UV spectrophotometer at 332.6 nm; assay type: physicochemical; conditions: 25° C.
# Method: The RFC compositions were prepared by mixing commercial natamycin (87%) withβ-CD(98%) in different molar ratios. A comparison on the solubility of natamycin was made for the RFC compositions. The solubility of natamycin in water is determined by UV Spectrophotometer at 332.6 nm.
# [3] = cited from earlier work
MIC [1],Solubility of natamycin [2],Compound,solubility in water [3]
1.25 to 1.5 µg/mL,–,"C[C@@H]1C/C=C/C=C/C=C/C=C/[C@H](O[C@@H]2O[C@H](C)[C@@H](O)[C@H](N)[C@@H]2O)C[C@@H]2O[C@](O)(C[C@@H](O)C[C@H]3O[C@@H]3/C=C/C(=O)O1)C[C@H](O)[C@H]2C(=O)O [Commercial natamycin (50%), natamycin]",–
–,45 ppm,C[C@@H]1C/C=C/C=C/C=C/C=C/[C@H](O[C@@H]2O[C@H](C)[C@@H](O)[C@H](N)[C@@H]2O)C[C@@H]2O[C@](O)(C[C@@H](O)C[C@H]3O[C@@H]3/C=C/C(=O)O1)C[C@H](O)[C@H]2C(=O)O [natamycin],0.005-0.010 weight/weigh
